Reference: patent US20250101486A1, “METHOD AND COMPOSITION FOR STABILISING NICOTINAMIDE ADENINE DINUCLEOTIDE” (ORIENTAL YEAST CO., LTD., priority 2022, published 2025)
Values belong to the compound of their own block, whether it stands above or below them.

How the values were obtained:
[1] = Stabilizing study of NAD in blood using nicotinamide and NMN; details: rat whole blood, overnight at 25° C.
Procedure: (§1) Three times the volume of 0.4 M trichloroacetic acid solution was added to the collected sample, mixed, and placed for 10 minutes under a static condition at room temperature. The mixture was then centrifuged, and the supernatant was collected as an NAD extract.
(§2) NAD in the extract was measured using a 7180 type Hitachi automatic analyzer (manufactured by Hitachi High-Tech Corporation). The measurement was performed by setting the first test solution (comprising a phosphate buffer (pH 7.0), 0.6 mM WST-8 and 1.7 U/mL glucose dehydrogenase (GLUCDH “Amano” 2 manufactured by Amano Enzyme Inc.) and the second test solution (comprising a phosphate buffer (pH 7.8), 320 mM D-glucose and 15 U/mL diaphorase (No. 46445003 manufactured by Oriental Yeast Co., Ltd.) using the measurement parameters as follows. • Analysis method . . . Rate A • Measurement wavelength (sub/main) . . . 600 nm/450 nm • Reaction duration . . . 10 minutes • Photometric points 27 to 34 • Sample solution (NAD extract solution) . . . 2 μL • R1 reagent . . . 120 μL • R2 reagent . . . 40 μL
(§3) That is, 2 AL of NAD extract and 120 μL of the first test solution were mixed and incubated at 37° C. for 4.5 min (photometric point 1 to 16), and 40 μL of the second test solution was added to start the reaction (photometric point 17). The value of an absorbance change per minute (ΔAbs/min) was calculated by subtracting an absorbance of water (blank) at the same photometric point from the absorbance value of the measured sample at 8 to 10 minutes (photometric point 27 to 34) after the start of reaction.
(§4) The NAD concentration of the sample was calculated from the calibration curve (the NAD concentration−the increase rate of absorbance (ΔAbs/min)) that was obtained beforehand by measuring multiple NAD solutions at predetermined concentrations.
(§5) Whole blood was collected from SD retired rats using EDTA-filled blood collection tubes. PBS (pH 6.0) comprising nicotinamide and NMN at 10 times the concentration shown in Table 1 was prepared as a 10× stabilizer for each. 450 μL of whole blood was transferred to a 1.5-mL centrifuge tube, and 50 μL of a 10× stabilizer for each was added and mixed. NAD was added to each tube to make 100 µM and used as a measurement sample.
(§6) The NAD extraction and the NAD measurement were performed on each measurement sample after being placed overnight under a static condition at 25° C., in the same manner according to Example 1. The relative value (%) of NAD concentration of each measured sample was calculated, wherein the concentration at the time of NAD addition (0 hour) was set as 100%. […] It was confirmed that the amount of remaining NAD became higher as the amount of nicotinamide and NMN increased.

[2] = Stabilizing study of NAD in blood using NMN and NR; details: rat whole blood, overnight at 25° C.
Procedure: Whole blood was collected from SD retired rats using EDTA-filled blood collection tubes. PBS (pH 6.0) comprising NMN and NR at 10 times the concentration shown in Table 3 was prepared as a 10× stabilizer for each. 450 μL of whole blood was transferred to a 1.5-mL centrifuge tube, and 50 μL of 10× stabilizer for each was added and mixed. NAD was added to each tube to make 100 µM and used as a measurement sample.
The NAD extraction and the NAD measurement were performed on each measurement sample after being placed overnight under a static condition overnight at 25° C., in the same manner according to Example 1. The relative value (%) of NAD concentration of each measured sample was calculated, wherein the concentration at the time of NAD addition (0 hour) was set as 100%.

[3] = Stabilizing study of NAD in blood using nicotinamide and NR; details: rat whole blood, overnight at 25° C.
Procedure: as §1, §2, §3, §4
as §5, with “collection tubes,” for “collection tubes.”, “and NR” for “and NMN”, “Table 2” for “Table 1”
as §6, with “NR” for “NMN”

[4] = Stability test of NAD (recovery test of NAD added to human pooled serum); format: in vitro ADME
Procedure: NAD was added to 2250 μL of human pooled serum to make 50 μmol/L and incubated at refrigeration, 25° C. and 37° C. The NAD concentrations in serum were measured at 1, 2, and 19 hours after the start of incubation.
The NAD concentration of the sample (i.e., serum) was measured by the following procedure,
as §1, §2, §3, §4
FIG. 1 is a graph illustrating a time-course change of relative values (%) of the NAD concentration in serum under each incubation condition when the concentration at the time of NAD addition (0 hour) is set as 100%. When stored at 25° C. and 37° C., the NAD concentrations reached almost 0% within two hours.

[5] = after collection, suspended in a buffer solution for extraction, cooled in ice; cited from earlier work

Compound: nicotinamide mononucleotide [NMN]
- relative value (%) of NAD concentration (0 hour = 100%) ([1]; 0 mM nicotinamide, 3 mM NMN): 8.2%
- relative value (%) of NAD concentration (0 hour = 100%) ([1]; 0 mM nicotinamide, 10 mM NMN): 16.1%
- relative value (%) of NAD concentration (0 hour = 100%) ([1]; 0 mM nicotinamide, 20 mM NMN): 33.0%
- relative value (%) of NAD concentration (0 hour = 100%) ([2]; 0 mM NR, 20 mM NMN): 29.1%
- relative value (%) of NAD concentration (0 hour = 100%) ([2]; 0 mM NR, 50 mM NMN): 58.0%
- relative value (%) of NAD concentration (0 hour = 100%) ([2]; 0 mM NR, 100 mM NMN): 89.6%

Compound: NC(=O)c1cccnc1 [Nicotinamide, nicotinamide]
- relative value (%) of NAD concentration (0 hour = 100%) ([1]; 50 mM nicotinamide, 0 mM NMN): 7.4%
- relative value (%) of NAD concentration (0 hour = 100%) ([1]; 100 mM nicotinamide, 0 mM NMN): 6.6%
- relative value (%) of NAD concentration (0 hour = 100%) ([1]; 200 mM nicotinamide, 0 mM NMN): 13.7%
- relative value (%) of NAD concentration (0 hour = 100%) ([3]; 50 mM nicotinamide, 0 mM NR): 7.8%
- relative value (%) of NAD concentration (0 hour = 100%) ([3]; 100 mM nicotinamide, 0 mM NR): 8.7%
- relative value (%) of NAD concentration (0 hour = 100%) ([3]; 200 mM nicotinamide, 0 mM NR): 10.8%

Compound: NC(=O)c1ccc[n+]([C@@H]2O[C@H](CO)[C@@H](O)[C@H]2O)c1 [NR, nicotinamide riboside]
- relative value (%) of NAD concentration (0 hour = 100%) ([3]; 0 mM nicotinamide, 3 mM NR): 7.5%
- relative value (%) of NAD concentration (0 hour = 100%) ([3]; 0 mM nicotinamide, 10 mM NR): 49.7%
- relative value (%) of NAD concentration (0 hour = 100%) ([3]; 0 mM nicotinamide, 20 mM NR): 64.8%
- relative value (%) of NAD concentration (0 hour = 100%) ([2]; 20 mM NR, 0 mM NMN): 62.9%
- relative value (%) of NAD concentration (0 hour = 100%) ([2]; 50 mM NR, 0 mM NMN): 71.2%
- relative value (%) of NAD concentration (0 hour = 100%) ([2]; 100 mM NR, 0 mM NMN): 77.7%

- relative value (%) of NAD concentration in serum (0 hour = 100%) ([4]; stored at 25° C., within two hours): ~0%
- relative value (%) of NAD concentration in serum (0 hour = 100%) ([4]; stored at 37° C., within two hours): ~0%
- relative value (%) of NAD concentration in serum (0 hour = 100%) ([4]; stored at refrigeration, within 20 hours): ~0%
- NAD concentration in serum relative to 0 hour ([4]; stored at refrigeration, within two hours): reduced by about half
Compound: NC(=O)c1ccc[n+]([C@@H]2O[C@H](COP(=O)([O-])OP(=O)(O)OC[C@H]3O[C@@H](n4cnc5c(N)ncnc54)[C@H](O)[C@@H]3O)[C@@H](O)[C@H]2O)c1 [NAD, nicotinamide adenine dinucleotide]
- time for which a blood sample for NAD measurement is stable [5]: 5 h
